Results: patent US9718828B2 (MERCK SHARP & DOHME CORP., priority 2011, dated 2017)
Where a name gives a salt, the structure may show the parent alone.

molecular target: hBTK (full-length BTK, 6HIS-tag cleaved) (Homo sapiens (Human), UniProt Q06187); assay: BTK enzymatic activity, LANCE TR-FRET assay (Assay Method C); format: biochemical; conditions: LANCE TR-FRET, 50 pM hBTK, 25 μM ATP; class 100-1000 is given as ≧100 nM-<1 μM; read-out: IC50 Btk activity values - Assay Method C
Sequence (Q06187 whole entry): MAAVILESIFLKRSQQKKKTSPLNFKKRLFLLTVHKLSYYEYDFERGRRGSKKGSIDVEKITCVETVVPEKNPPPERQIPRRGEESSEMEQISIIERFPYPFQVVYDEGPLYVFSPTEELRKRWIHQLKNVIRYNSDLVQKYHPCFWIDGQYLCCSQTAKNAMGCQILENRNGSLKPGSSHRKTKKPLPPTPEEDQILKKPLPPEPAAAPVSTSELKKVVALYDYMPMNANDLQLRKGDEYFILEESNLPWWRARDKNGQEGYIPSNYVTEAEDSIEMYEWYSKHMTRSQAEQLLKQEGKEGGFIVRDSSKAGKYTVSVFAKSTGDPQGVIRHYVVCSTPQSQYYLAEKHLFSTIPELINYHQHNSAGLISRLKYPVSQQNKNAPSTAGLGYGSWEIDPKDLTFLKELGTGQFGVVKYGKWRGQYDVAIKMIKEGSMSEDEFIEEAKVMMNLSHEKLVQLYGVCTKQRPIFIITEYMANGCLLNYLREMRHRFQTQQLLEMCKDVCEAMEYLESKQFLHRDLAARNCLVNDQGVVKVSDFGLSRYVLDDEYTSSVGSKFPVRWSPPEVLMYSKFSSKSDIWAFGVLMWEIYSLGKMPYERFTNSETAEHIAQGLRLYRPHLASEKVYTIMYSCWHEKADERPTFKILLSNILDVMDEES

Row | SMILES | IC50 [nM]
1 | CCc1ccnc(NC(=O)c2ccc(-c3nc([C@@H]4CCCN(C(=O)C5(C)COC5)C4)n4c(C)cnc(N)c34)cc2)c1 [Example 455, 4-(8-amino-5-methyl-3-{(3R)-1-[(3-methyloxetan-3-yl)carbonyl]piperidin-3-yl}imidazo[1,5-a]pyrazin-1-yl)-N-(4-ethylpyridin-2-yl)benzamide] | < 10
2 | CCn1cc2c(n1)CCC[C@@H]2n1nc(-c2ccc(C(=O)Nc3cc(C(F)(F)F)ccn3)cc2)c2c(N)ncnc21 [Example 560, 4-{4-amino-1-[(4S)-2-ethyl-4,5,6,7-tetrahydro-2H-indazol-4-yl]-1H-pyrazolo[3,4-d]pyrimidin-3-yl}-N-[4-(trifluoromethyl)pyridin-2-yl]benzamide, TFA salt] | 10 to 100
3 | Cc1cnc(N)c2c(-c3ccc(C(=O)Nc4cc(C(C)(F)F)ccn4)cc3)nc([C@@H]3CCCN(C(=O)C4(C)COC4)C3)n12 [Example 454, 4-(8-amino-5-methyl-3-{(3R)-1-[(3-methyloxetan-3-yl)carbonyl]piperidin-3-yl}imidazo[1,5-a]pyrazin-1-yl)-N-[4-(1,1-difluoroethyl)pyridin-2-yl]benzamide] | < 10
4 | Cc1nc(NC(=O)c2ccc(-c3nc([C@@H]4CCCN(C(=O)C5(C)COC5)C4)n4ccnc(N)c34)cc2)sc1C [Example 367, 4-(8-amino-3-{(3R)-1-[(3-methyloxetan-3-yl)carbonyl]piperidin-3-yl}imidazo[1,5-a]pyrazin-1-yl)-N-(4,5-dimethyl-1,3-thiazol-2-yl)benzamide] | < 10
5 | CO[C@@H](C)c1cnc(N)c2c(-c3ccc(C(=O)Nc4cc(C(F)(F)F)ccn4)cc3)nc([C@@H]3CCCN(C(=O)C4(C)COC4)C3)n12 [Example 468, 4-(8-amino-5-[(1S)-1-methoxyethyl]-3-{(3R)-1-[(3-methyloxetan-3-yl)carbonyl]piperidin-3-yl}imidazo[1,5-a]pyrazin-1-yl)-N-[4-(trifluoromethyl)pyridin-2-yl]benzamide] | < 10
6 | Nc1ncnc2c1c(-c1ccc(C(=O)Nc3cc(C(F)(F)F)ccn3)cc1)nn2[C@H]1CCCc2nn(CCO)cc21 [Example 564, 4-{4-amino-1-[(4S)-2-(2-hydroxyethyl)-4,5,6,7-tetrahydro-2H-indazol-4-yl]-1H-pyrazolo[3,4-d]pyrimidin-3-yl}-N-[4-(trifluoromethyl)pyridin-2-yl]benzamide, TFA salt] | < 10
7 | CC1(C(=O)N2CCC[C@@H](c3nc(-c4ccc(C(=O)Nc5ccc(C(F)F)cn5)cc4)c4c(N)nccn34)C2)COC1 [Example 355, 4-(8-amino-3-{(3R)-1-[(3-methyloxetan-3-yl)carbonyl]piperidin-3-yl}imidazo[1,5-a]pyrazin-1-yl)-N-[5-(difluoromethyl)pyridin-2-yl]benzamide] | < 10
8 | CC1(C(=O)N2CCC[C@@H](n3nc(-c4ccc(C(=O)Nc5cc(C(F)(F)F)ccn5)cc4)c4c(N)ncc(Cl)c43)C2)COC1 [Example 382, 4-(4-amino-7-chloro-1-{(3R)-1-[(3-methyloxetan-3-yl)carbonyl]piperidin-3-yl}-1H-pyrazolo[4,3-c]pyridin-3-yl)-N-[4-(trifluoromethyl)pyridin-2-yl]benzamide] | < 10
9 | COc1ccnc(NC(=O)c2ccc(-c3nc([C@@H]4CCCN(C(=O)C5(C)COC5)C4)n4c(Cl)cnc(N)c34)cc2)c1 [Example 444, 4-(8-amino-5-chloro-3-{(3R)-1-[(3-methyloxetan-3-yl)carbonyl]piperidin-3-yl}imidazo[1,5-a]pyrazin-1-yl)-N-(4-methoxypyridin-2-yl)benzamide] | < 10
10 | Nc1ncnc2c1c(-c1ccc(C(=O)Nc3cc(C(F)(F)F)ccn3)cc1)nn2[C@H]1CCCc2[nH]ncc21 [Example 555, 4-{4-amino-1-[(4S)-4,5,6,7-tetrahydro-1H-indazol-4-yl]-1H-pyrazolo[3,4-d]pyrimidin-3-yl}-N-[4-(trifluoromethyl)pyridin-2-yl]benzamide, TFA salt] | < 10
11 | CC1(C(=O)N2CCC[C@@H](c3nc(-c4ccc(C(=O)Nc5cc(C#N)ccn5)cc4)c4c(N)ncc(Cl)n34)C2)COC1 [Example 445, 4-(8-amino-5-chloro-3-{(3R)-1-[(3-methyloxetan-3-yl)carbonyl]piperidin-3-yl}imidazo[1,5-a]pyrazin-1-yl)-N-(4-cyanopyridin-2-yl)benzamide] | < 10

Now from value to compound:

Row | IC50 [nM] | SMILES
12 | < 10 | Nc1nccn2c([C@@H]3CCCN(C(=O)CC(F)(F)F)C3)nc(-c3ccc(C(=O)Nc4cc(C(F)(F)F)ccn4)cc3)c12 [Example 332, 4-{8-amino-3-[(3R)-1-(3,3,3-trifluoropropanoyl)piperidin-3-yl]imidazo[1,5-a]pyrazin-1-yl}-N-[4-(trifluoromethyl)pyridin-2-yl]benzamide]
13 | < 10 | Nc1ncc(Cl)n2c([C@@H]3CCCN(C=O)C3)nc(-c3ccc(C(=O)Nc4cc(C(F)(F)F)ccn4)cc3)c12 [Example 443, 4-{8-amino-5-chloro-3-[(3R)-1-formylpiperidin-3-yl]imidazo[1,5-a]pyrazin-1-yl}-N-[4-(trifluoromethyl)pyridin-2-yl]benzamide]
14 | < 10 | Nc1nccn2c([C@H]3CN[C@@H](CO)CO3)nc(-c3ccc(C(=O)Nc4cc(C(F)(F)F)ccn4)cc3)c12 [Example 546, 4-{8-amino-3-[(2R,5S)-5-(hydroxymethyl)morpholin-2-yl]imidazo[1,5-a]pyrazin-1-yl}-N-[4-(trifluoromethyl)pyridin-2-yl]benzamide]
15 | < 10 | CC(=O)N1C[C@@H](c2nc(-c3ccc(C(=O)Nc4cc(C(F)(F)F)ccn4)cc3)c3c(N)nccn23)CC[C@@H]1C(F)(F)F [Example 427, 4-{3-[(3S,6R)-1-acetyl-6-(trifluoromethyl)piperidin-3-yl]-8-aminoimidazo[1,5-a]pyrazin-1-yl}-N-[4-(trifluoromethyl)pyridin-2-yl]benzamide]
16 | < 10 | CCC(=O)N1CCC[C@@H](c2nc(-c3ccc(C(=O)Nc4cc(C(F)(F)F)ccn4)cc3OC)c3c(N)nccn23)C1 [Example 490, 4-{8-amino-3-[(3R)-1-propanoylpiperidin-3-yl]imidazo[1,5-a]pyrazin-1-yl}-3-methoxy-N-[4-(trifluoromethyl)pyridin-2-yl]benzamide]
17 | < 10 | Cc1noc(C)c1C(=O)N1CCC[C@@H](c2nc(-c3ccc(C(=O)Nc4cc(C(F)(F)F)ccn4)cc3)c3c(N)nccn23)C1 [Example 328]
18 | < 10 | C[C@H]1CO[C@@H](c2nc(-c3ccc(C(=O)Nc4cc(C(F)(F)F)ccn4)cc3)c3c(N)nccn23)CN1C(=O)C1CC1 [Example 516, 4-{8-amino-3-[(2R,5S)-4-(cyclopropylcarbonyl)-5-methylmorpholin-2-yl]imidazo[1,5-a]pyrazin-1-yl}-N-[4-(trifluoromethyl)pyridin-2-yl]benzamide, TFA salt]
19 | < 10 | C[C@@H](O)C(=O)N1CCO[C@@H](c2nc(-c3ccc(C(=O)Nc4cc(C(F)(F)F)ccn4)cc3)c3c(N)nccn23)C1 [Example 520, 4-(8-amino-3-{(2R)-4-[(2R)-2-hydroxypropanoyl]morpholin-2-yl}imidazo[1,5-a]pyrazin-1-yl)-N-[4-(trifluoromethyl)pyridin-2-yl]benzamide]
20 | < 10 | CC1(C(=O)N2CCC[C@@](C)(c3nc(-c4ccc(C(=O)Nc5cc(C(F)(F)F)ccn5)cc4)c4c(N)nccn34)C2)COC1 [Example 438, 4-(8-amino-3-{(3R)-3-methyl-1-[(3-methyloxetan-3-yl)carbonyl]piperidin-3-yl}imidazo[1,5-a]pyrazin-1-yl)-N-[4-(trifluoromethyl)pyridin-2-yl]benzamide]
21 | < 10 | COC(=O)N1C[C@@H](c2nc(-c3ccc(C(=O)Nc4cc(C(F)(F)F)ccn4)cc3)c3c(N)nccn23)CC[C@@H]1C(F)(F)F [Example 430, methyl (2R,5S)-5-[8-amino-1-(4-{[4-(trifluoromethyl)pyridin-2-yl]carbamoyl}phenyl)imidazo[1,5-a]pyrazin-3-yl]-2-(trifluoromethyl)piperidine-1-carboxylate]
22 | < 10 | Cn1cc(CN2C[C@H](c3nc(-c4ccc(C(=O)Nc5cc(C(F)(F)F)ccn5)cc4)c4c(N)nccn34)OC[C@@H]2CO)cn1 [Example 548, 4-(8-amino-3-{(2R,5S)-5-(hydroxymethyl)-4-[(1-methyl-1H-pyrazol-4-yl)methyl]morpholin-2-yl}imidazo[1,5-a]pyrazin-1-yl)-N-[4-(trifluoromethyl)pyridin-2-yl]benzamide, TFA salt]
23 | < 10 | CC1(C(=O)N2CCO[C@@H](c3nc(-c4ccc(C(=O)Nc5cc(C(F)(F)F)ccn5)cc4)c4c(N)ncc(Cl)n34)C2)COC1 [Example 505, 4-(8-amino-5-chloro-3-{(2R)-4-[(3-methyloxetan-3-yl)carbonyl]morpholin-2-yl}imidazo[1,5-a]pyrazin-1-yl)-N-[4-(trifluoromethyl)pyridin-2-yl]benzamide]
24 | < 10 | Nc1ncnc2c1c(-c1ccc(C(=O)Nc3cc(C(F)(F)F)ccn3)cc1)nn2[C@H]1CCCc2c1cnn2CCO [Example 563, 4-{4-amino-1-[(4S)-1-(2-hydroxyethyl)-4,5,6,7-tetrahydro-1H-indazol-4-yl]-1H-pyrazolo[3,4-d]pyrimidin-3-yl}-N-[4-(trifluoromethyl)pyridin-2-yl]benzamide, TFA salt]
25 | < 10 | C[C@H](O)C(=O)N1CCO[C@@H](c2nc(-c3ccc(C(=O)Nc4cc(C(F)(F)F)ccn4)cc3)c3c(N)ncc(Cl)n23)C1 [Example 523, 4-(8-amino-5-chloro-3-{(2R)-4-[(2S)-2-hydroxypropanoyl]morpholin-2-yl}imidazo[1,5-a]pyrazin-1-yl)-N-[4-(trifluoromethyl)pyridin-2-yl]benzamide]
26 | 10 to 100 | CC1(C(=O)N2CCC[C@@H](c3nc(-c4ccc(C(=O)Nc5ccc(C(F)(F)F)cn5)cc4)c4c(N)nccn34)C2)COC1 [Example 359, 4-(8-amino-3-{(3R)-1-[(3-methyloxetan-3-yl)carbonyl]piperidin-3-yl}imidazo[1,5-a]pyrazin-1-yl)-N-[5-(trifluoromethyl)pyridin-2-yl]benzamide]

same assay, conditions: Table D; Assay Method C (LANCE TR-FRET), 50 pM hBTK, 25 μM ATP; read-out: IC50 BTK activity value

Row | SMILES | IC50 [nM]
27 | CC1(C(=O)N2CCC[C@@H](c3nc(-c4ccc(C(=O)Nc5ccc(C(F)F)cn5)cc4)c4c(N)nccn34)C2)COC1 [Example 355, 4-(8-amino-3-{(3R)-1-[(3-methyloxetan-3-yl)carbonyl]piperidin-3-yl}imidazo[1,5-a]pyrazin-1-yl)-N-[5-(difluoromethyl)pyridin-2-yl]benzamide] | 1.33
